# Experimental data taken from PubChem BioAssay (NCI).
#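 96-well plates; 48 h exposure; 5 concentrations. Endpoints by linear interpolation between flanking doses. Not reached: highest tested concentration assigned. TGI: total growth inhibition.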
# Key:
# Test in all cases: DTP human tumour cell line panel, 48 h
# LOX IMVI melanoma = system: LOX IMVI melanoma
# HOP-92 NSCLC = system: HOP-92 NSCLC
# K-562 leukemia = system: K-562 leukemia
# OVCAR-4 ovarian = system: OVCAR-4 ovarian
# NCI-H460 lung = system: NCI-H460 lung
# MOLT-4 leukemia = system: MOLT-4 leukemia
# ACHN renal = system: ACHN renal
# HS 578T breast = system: HS 578T breast
# HT29 colon = system: HT29 colon
# SF-268 CNS = system: SF-268 CNS
# RPMI-8226 leukemia = system: RPMI-8226 leukemia
# A498 renal = system: A498 renal
# U251 CNS = system: U251 CNS
# MDA-MB-231 breast = system: MDA-MB-231 breast
# BT-549 breast = system: BT-549 breast
# SN12C renal = system: SN12C renal
# IGROV1 ovarian = system: IGROV1 ovarian
# MALME-3M melanoma = system: MALME-3M melanoma
# CCRF-CEM leukemia = system: CCRF-CEM leukemia
# HCT-15 colon = system: HCT-15 colon
# RXF 393 renal = system: RXF 393 renal
# OVCAR-5 ovarian = system: OVCAR-5 ovarian
# 786-0 renal = system: 786-0 renal
# NCI-H522 lung = system: NCI-H522 lung
# UO-31 renal = system: UO-31 renal
# MDA-N = system: MDA-N
# SK-MEL-2 melanoma = system: SK-MEL-2 melanoma
# EKVX NSCLC = system: EKVX NSCLC
# SR leukemia = system: SR leukemia
# DU-145 prostate = system: DU-145 prostate
# MCF7 breast = system: MCF7 breast
# NCI-H23 lung = system: NCI-H23 lung
# SK-MEL-28 melanoma = system: SK-MEL-28 melanoma
# UACC-257 melanoma = system: UACC-257 melanoma
# SNB-19 CNS = system: SNB-19 CNS
# SK-OV-3 ovarian = system: SK-OV-3 ovarian
# T-47D breast = system: T-47D breast
# HCC-2998 colon = system: HCC-2998 colon
# UACC-62 melanoma = system: UACC-62 melanoma
# HL-60(TB) leukemia = system: HL-60(TB) leukemia
# PC-3 prostate = system: PC-3 prostate
# SF-539 CNS = system: SF-539 CNS
# CAKI-1 renal = system: CAKI-1 renal
# NCI-H226 lung = system: NCI-H226 lung
# A549 NSCLC = system: A549 NSCLC
# SF-295 CNS = system: SF-295 CNS
# OVCAR-3 ovarian = system: OVCAR-3 ovarian
# KM12 colon = system: KM12 colon
# M14 melanoma = system: M14 melanoma
# SK-MEL-5 melanoma = system: SK-MEL-5 melanoma
# TK-10 renal = system: TK-10 renal
# MDA-MB-435 = system: MDA-MB-435
# COLO 205 colon = system: COLO 205 colon
# HCT-116 colon = system: HCT-116 colon
# SW-620 colon = system: SW-620 colon
# HOP-62 NSCLC = system: HOP-62 NSCLC
smiles,measurement,setting,value
COc1cccc2c(Nc3ccc(S(=O)(=O)Nc4ncccn4)cc3)c3ccc([N+](=O)[O-])cc3nc12,TGI,LOX IMVI melanoma,> 100 µM
same,TGI,HOP-92 NSCLC,> 100 µM
same,TGI,K-562 leukemia,> 100 µM
same,TGI,OVCAR-4 ovarian,> 100 µM
same,TGI,NCI-H460 lung,> 100 µM
same,TGI,MOLT-4 leukemia,81.2 µM
same,TGI,ACHN renal,> 100 µM
same,TGI,HS 578T breast,> 100 µM
same,TGI,HT29 colon,> 100 µM
same,TGI,SF-268 CNS,> 100 µM
same,TGI,RPMI-8226 leukemia,> 100 µM
same,TGI,A498 renal,> 100 µM
same,TGI,U251 CNS,> 100 µM
same,TGI,MDA-MB-231 breast,> 100 µM
same,TGI,BT-549 breast,> 100 µM
same,TGI,SN12C renal,> 100 µM
same,TGI,IGROV1 ovarian,> 100 µM
same,TGI,MALME-3M melanoma,> 100 µM
same,TGI,CCRF-CEM leukemia,> 100 µM
same,TGI,HCT-15 colon,> 100 µM
same,TGI,RXF 393 renal,> 100 µM
same,TGI,OVCAR-5 ovarian,> 100 µM
same,TGI,786-0 renal,> 100 µM
same,TGI,NCI-H522 lung,> 100 µM
same,TGI,UO-31 renal,> 100 µM
same,TGI,MDA-N,> 100 µM
same,TGI,SK-MEL-2 melanoma,> 100 µM
same,TGI,EKVX NSCLC,> 100 µM
same,TGI,SR leukemia,13.9 µM
same,TGI,DU-145 prostate,> 100 µM
same,TGI,MCF7 breast,> 100 µM
same,TGI,NCI-H23 lung,> 100 µM
same,TGI,SK-MEL-28 melanoma,> 100 µM
same,TGI,UACC-257 melanoma,> 100 µM
same,TGI,SNB-19 CNS,> 100 µM
same,TGI,SK-OV-3 ovarian,> 100 µM
same,TGI,T-47D breast,> 100 µM
same,TGI,HCC-2998 colon,> 100 µM
same,TGI,UACC-62 melanoma,> 100 µM
same,TGI,HL-60(TB) leukemia,88.6 µM
same,TGI,PC-3 prostate,> 100 µM
same,TGI,SF-539 CNS,> 100 µM
same,TGI,CAKI-1 renal,> 100 µM
same,TGI,NCI-H226 lung,> 100 µM
same,TGI,A549 NSCLC,> 100 µM
same,TGI,SF-295 CNS,> 100 µM
same,TGI,OVCAR-3 ovarian,> 100 µM
same,TGI,KM12 colon,> 100 µM
same,TGI,M14 melanoma,> 100 µM
same,TGI,SK-MEL-5 melanoma,> 100 µM
same,TGI,TK-10 renal,> 100 µM
same,TGI,MDA-MB-435,> 100 µM
same,TGI,COLO 205 colon,> 100 µM
same,TGI,HCT-116 colon,> 100 µM
same,TGI,SW-620 colon,> 100 µM
same,TGI,HOP-62 NSCLC,> 100 µM
